In US11566017B2, “Dihydroquinazolinone compound or pharmacologically acceptable salt, and cell growth inhibitor” (RIKEN, priority 2017, dated 2023):

What was measured:
tankyrase 2 (TNKS2) = target: T1, tankyrase 2 (TNKS2) (Homo sapiens, UniProt Q9H2K2); assay: Tankyrase inhibitory activity test (ELISA, auto-poly(ADP-ribosyl)ation), tankyrase 2; type: biochemical; settings: Flag tagged tankyrase 2 (613-1,116aa, ANK5+SAM+PARP); read-out: TNKS2 (inhibitory activity against tankyrase 2, IC50)
T1 construct: tankyrase 2 (613-1,116aa, ANK5+SAM+PARP); made in house; host or cells: cell-free protein expression system
In short: (§1)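 Cell-free-expressed Flag-tagged TNKS1 (1,024-1,327aa, SAM+PARP) or TNKS2 (613-1,116aa, ANK5+SAM+PARP) was captured on anti-FLAG plates and pre-incubated 10 min at RT with compound (pH 8.0, MgCl2, DTT). Auto-PARylation was started with NAD solution (225 μM NAD, 25 μM biotin-NAD), 45 min at 30 °C. Detection by HRP-streptavidin chemiluminescence; IC50 from residual activity.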

tankyrase 1 (TNKS1) = target: T2, tankyrase 1 (TNKS1) (Homo sapiens, UniProt O95271); assay: Tankyrase inhibitory activity test (ELISA, auto-poly(ADP-ribosyl)ation), tankyrase 1; type: biochemical; settings: Flag tagged tankyrase 1 (1,024-1,327aa, SAM+PARP); read-out: TNKS1 (inhibitory activity against tankyrase 1, IC50)
T2 construct: tankyrase 1 (1,024-1,327aa, SAM+PARP); made in house; host or cells: cell-free protein expression system
In short: as §1

[1] = test system: human colorectal cancer cell line COLO-320DM; assay: Cell proliferation inhibitory activity test (Celltiter-Glo); type: cell-based; settings: COLO-320DM cells, 96 hours
[2] = test system: tubulin (microtubule polymerization); assay: Microtubule polymerization inhibition test (fluorescence kit BK011P); type: biochemical; settings: 60 min
Description: Using a microtubule polymerization reaction measurement kit (Cytoskeleton Inc.; BK011P), the microtubule polymerization inhibitory activity of the compound (test compound) prepared in each of Examples was evaluated on the basis of the standard protocol of the kit. Solutions with concentrations of 30 μM and 150 μM were prepared by dissolving the test compound in DMSO, and used as test compound solutions (with final concentrations of 3 μM and 15 μM, respectively). DMSO was used as a negative control solution, and vincristine (final concentration: 3 μM) was used as a positive control solution.
5 μL of the test compound solution or each control solution, and 50 μL of a microtubule-containing reaction mixture (1×Buffer 1; 1 mM GTP; 15% glycerol; and tubulin with a concentration of 2 mg/mL) were added to a 96-well plate (Corning Costar Company; #3686) warmed to 37° C., and a change in fluorescence of the reaction solution was measured over 1 hour. A higher fluorescence intensity means a higher degree of progression of polymerization of microtubules. The composition of Buffer 1 and the fluorescence measurement conditions employed in the analysis are shown below.
80 mM Piperazine-N,N′-bis[2-ethanesulfonic acid] sequisodium salt; 2.0 mM Magnesium chloride; 0.5 mM Ethylene glycol-bis (β-amino-ethyl ether)N,N,N′,N′-tetra-acetic acid; 10 μM fluorescent reporter
Measurement wavelength: 360 nm (excitation wavelength) and 450 nm (emission wavelength)
Measurement time: 60 min (1 cycle/min)
Equipment used: Microplatereader SpectraMax M2 (Molecular Devices Company)

[3] = racemates, 3 μM (FIG. 1A) and 15 μM (FIG. 1B)

T2 sequence (O95271 1024-1327): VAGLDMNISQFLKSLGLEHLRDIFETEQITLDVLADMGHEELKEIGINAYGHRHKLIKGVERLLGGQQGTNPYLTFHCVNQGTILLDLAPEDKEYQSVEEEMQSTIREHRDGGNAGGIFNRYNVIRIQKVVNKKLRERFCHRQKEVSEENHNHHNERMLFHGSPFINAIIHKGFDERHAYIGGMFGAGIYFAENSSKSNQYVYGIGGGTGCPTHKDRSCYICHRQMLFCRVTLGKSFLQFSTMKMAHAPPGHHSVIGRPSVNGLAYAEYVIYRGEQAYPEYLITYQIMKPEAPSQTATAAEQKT

CCOc1ccc(-c2n[nH]nc2C2NC(=O)c3cccc(C)c3N2)cc1 (racemic) [Example 70, 2-[5-(4-Ethoxyphenyl)-2H-1,2,3-triazol-4-yl]-8-methyl-2,3-dihydro-1H-quinazolin-4-one]
IC50 (tankyrase 2 (TNKS2)): < 5 nM
IC50 (tankyrase 1 (TNKS1)): 5 to 20 nM
GI50 [1]: < 1000 nM
microtubule polymerization: increase in fluorescence intensity [2, 3]: slower increase in fluorescence intensity as compared to the DMSO control

COc1ccc(-c2n[nH]nc2C2NC(=O)c3cccc(C)c3N2)cc1 (racemic) [Example 65, 2-[5-(4-Methoxyphenyl)-2H-1,2,3-triazol-4-yl]-8-methyl-2,3-dihydro-1H-quinazolin-4-one]
IC50 (tankyrase 2 (TNKS2)): < 5 nM
IC50 (tankyrase 1 (TNKS1)): 5 to 20 nM
GI50 [1]: < 1000 nM
microtubule polymerization: increase in fluorescence intensity [2, 3]: slower increase in fluorescence intensity as compared to the DMSO control

COc1ccc(-c2[nH]ncc2C2NC(=O)c3cccc(C)c3N2)cc1 (stereo not shown) [Example 50, 2-[5-(4-Methoxyphenyl)-1H-pyrazol-4-yl]-8-methyl-2,3-dihydro-1H-quinazolin-4-one]
IC50 (tankyrase 2 (TNKS2)): 5 to 20 nM
IC50 (tankyrase 1 (TNKS1)): 5 to 20 nM
GI50 [1]: ≥ 10000 nM

CN1c2ccccc2C(=O)NC1c1c[nH]nc1-c1ccc(-c2ccccc2)cc1 (stereo not shown) [Example 17, 1-Methyl-2-[3-(4-phenylphenyl)-1H-pyrazol-4-yl]-2,3-dihydroquinazolin-4-one]
IC50 (tankyrase 2 (TNKS2)): < 5 nM
IC50 (tankyrase 1 (TNKS1)): 20 to 50 nM
GI50 [1]: ≥ 10000 nM

CC[C@]1(O)C[C@H]2CN(CCc3c([nH]c4ccccc34)[C@@](C(=O)OC)(c3cc4c(cc3OC)N(C=O)[C@H]3[C@@](O)(C(=O)OC)[C@H](OC(C)=O)[C@]5(CC)C=CCN6CC[C@]43[C@@H]65)C2)C1 [vincristine, reference compound]
microtubule polymerization: increase in fluorescence intensity ([2]; positive control, final concentration 3 μM): slower increase in fluorescence intensity as compared to the DMSO control

CCOc1ccc(-c2n[nH]cc2C2NC(=O)c3cccc(C)c3N2)cc1 (stereo not shown) [Example 55, 2-[5-(4-Ethoxyphenyl)-1H-pyrazol-4-yl]-8-methyl-2,3-dihydro-1H-quinazolin-4-one]
IC50 (tankyrase 2 (TNKS2)): < 5 nM
IC50 (tankyrase 1 (TNKS1)): 5 to 20 nM
GI50 [1]: 1000 to 10000 nM

Cc1cccc2c1NC(c1n[nH]nc1-c1ccc(OC(F)F)cc1)NC2=O (stereo not shown) [Example 73, 2-[4-[4-(Difluoromethoxy)phenyl]-2H-1,2,3-triazol-5-yl]-8-methyl-2,3-dihydro-1H-quinazolin-4-one]
IC50 (tankyrase 2 (TNKS2)): 20 to 50 nM
IC50 (tankyrase 1 (TNKS1)): 20 to 50 nM
GI50 [1]: ≥ 10000 nM

COc1ccc(-c2n[nH]nc2C2NC(=O)c3cccc4c3N2CC4)cc1 (racemic) [Example 69, 11-[5-(4-Methoxyphenyl)-2H-1,2,3-triazol-4-yl]-1,10-diazatricyclo[6.3.1.0^4,12]dodeca-4(12),5,7-trien-9-one]
IC50 (tankyrase 2 (TNKS2)): 5 to 20 nM
IC50 (tankyrase 1 (TNKS1)): 5 to 20 nM
GI50 [1]: 1000 to 10000 nM
microtubule polymerization: increase in fluorescence intensity [2, 3]: slower increase in fluorescence intensity as compared to the DMSO control

COc1ccc(-c2n[nH]nc2C2NC(=O)c3ccccc3N2C)cc1 (stereo not shown) [Example 58, 2-[5-(4-Methoxyphenyl)-2H-1,2,3-triazol-4-yl]-1-methyl-2,3-dihydroquinazolin-4-one]
IC50 (tankyrase 2 (TNKS2)): < 5 nM
IC50 (tankyrase 1 (TNKS1)): 5 to 20 nM
GI50 [1]: 1000 to 10000 nM

CN1CCN(c2ccc(-c3ccc(-c4n[nH]cc4C4NC(=O)c5ccccc5N4C)cc3F)cc2)CC1 (stereo not shown) [Example 44, 2-[5-[3-Fluoro-4-[4-(4-methylpiperazin-1-yl)phenyl]phenyl]-1H-pyrazol-4-yl]-1-methyl-2,3-dihydroquinazolin-4-one]
IC50 (tankyrase 2 (TNKS2)): 5 to 20 nM
IC50 (tankyrase 1 (TNKS1)): 5 to 20 nM
GI50 [1]: 1000 to 10000 nM

CN1c2ccccc2C(=O)NC1c1c[nH]nc1-c1cccc(Cl)c1 (stereo not shown) [Example 42, 2-[3-(3-Chlorophenyl)-1H-pyrazol-4-yl]-1-methyl-2,3-dihydroquinazolin-4-one]
IC50 (tankyrase 2 (TNKS2)): 5 to 20 nM
IC50 (tankyrase 1 (TNKS1)): 20 to 50 nM
GI50 [1]: 1000 to 10000 nM

COc1ccc(-c2n[nH]nc2C2NC(=O)c3cccc(O)c3N2)cc1 (stereo not shown) [Example 67, 8-Hydroxy-2-[5-(4-methoxyphenyl)-2H-1,2,3-triazol-4-yl]-2,3-dihydro-1H-quinazolin-4-one]
IC50 (tankyrase 2 (TNKS2)): 5 to 20 nM
IC50 (tankyrase 1 (TNKS1)): 5 to 20 nM
GI50 [1]: ≥ 10000 nM

COc1ccc(-c2n[nH]cc2C2NC(=O)c3ccccc3N2C)cc1 (stereo not shown) [Example 83, 2-[5-(4-Methoxyphenyl)-1H-pyrazol-4-yl]-1-methyl-2,3-dihydroquinazolin-4-one]
IC50 (tankyrase 2 (TNKS2)): 5 to 20 nM
IC50 (tankyrase 1 (TNKS1)): 5 to 20 nM
GI50 [1]: 1000 to 10000 nM

CN1c2ccccc2C(=O)NC1c1c[nH]nc1-c1ccc(OCC(F)(F)F)cc1 (stereo not shown) [Example 27, 1-Methyl-2-[3-(4-(2,2,2-trifluoromethoxy)phenyl]-1H-pyrazol-4-yl]-2,3-dihydroquinazolin-4-one]
IC50 (tankyrase 2 (TNKS2)): 5 to 20 nM
IC50 (tankyrase 1 (TNKS1)): < 5 nM
GI50 [1]: ≥ 10000 nM

COc1cccc(-c2n[nH]cc2C2NC(=O)c3ccccc3N2C)c1 (stereo not shown) [Example 15, 2-[5-(3-Methoxyphenyl)-1H-pyrazol-4-yl]-1-methyl-2,3-dihydroquinazolin-4-one]
IC50 (tankyrase 2 (TNKS2)): 20 to 50 nM
IC50 (tankyrase 1 (TNKS1)): 5 to 20 nM
GI50 [1]: ≥ 10000 nM

O=C1NC(c2n[nH]nc2-c2ccc(OCC(F)F)cc2)N2CCc3cccc1c32 (stereo not shown) [Example 84, 11-[5-[4-(2,2-Difluoroethoxy)phenyl]-2H-1,2,3-triazol-4-yl]-1,10-diazatricyclo[6.3.1.0^4,12]dodeca-4(12),5,7-trien-9-one]
IC50 (tankyrase 2 (TNKS2)): 5 to 20 nM
IC50 (tankyrase 1 (TNKS1)): 5 to 20 nM
GI50 [1]: ≥ 10000 nM

CN1CCN(Cc2ccc(-c3ccc(-c4n[nH]cc4C4NC(=O)c5ccccc5N4C)cc3)cc2)CC1 (stereo not shown) [Example 25, 1-Methyl-2-[5-[4-[4-[(4-methylpiperazin-1-yl)methyl]phenyl]phenyl]-1H-pyrazol-4-yl]-2,3-dihydroquinazolin-4-one]
IC50 (tankyrase 2 (TNKS2)): 20 to 50 nM
IC50 (tankyrase 1 (TNKS1)): 5 to 20 nM
GI50 [1]: ≥ 10000 nM

CCOc1ccc(-c2n[nH]nc2[C@H]2NC(=O)c3cccc(C)c3N2)cc1 [Example 8, (2R)-2-[5-(4-Ethoxyphenyl)-2H-1,2,3-triazol-4-yl]-8-methyl-2,3-dihydro-1H-quinazolin-4-one]
IC50 (tankyrase 2 (TNKS2)): < 5 nM
IC50 (tankyrase 1 (TNKS1)): < 5 nM
GI50 [1]: < 1000 nM

CN1c2ccccc2C(=O)NC1c1c[nH]nc1-c1ccc(Br)c(F)c1 (stereo not shown) [Example 43, 2-[3-(4-Bromo-3-fluorophenyl)-1H-pyrazol-4-yl]-1-methyl-2,3-dihydroquinazolin-4-one]
IC50 (tankyrase 2 (TNKS2)): < 5 nM
IC50 (tankyrase 1 (TNKS1)): < 5 nM
GI50 [1]: ≥ 10000 nM

CN1c2ccccc2C(=O)NC1c1c[nH]nc1-c1cccc(-c2ccccc2)c1 (stereo not shown) [Example 22, 1-Methyl-2-[3-(3-phenylphenyl)-1H-pyrazol-4-yl]-2,3-dihydroquinazolin-4-one]
IC50 (tankyrase 2 (TNKS2)): < 5 nM
IC50 (tankyrase 1 (TNKS1)): < 5 nM
GI50 [1]: ≥ 10000 nM

CCOC(=O)COc1ccc(-c2n[nH]nc2C2NC(=O)c3cccc(C)c3N2)cc1 (stereo not shown) [Example 79]
IC50 (tankyrase 2 (TNKS2)): 5 to 20 nM
IC50 (tankyrase 1 (TNKS1)): 5 to 20 nM
GI50 [1]: ≥ 10000 nM

CN1c2ccccc2C(=O)NC1c1c[nH]nc1-c1cccc(-c2ccc(N3CCOCC3)cc2)c1 (stereo not shown) [Example 30]
IC50 (tankyrase 2 (TNKS2)): 5 to 20 nM
IC50 (tankyrase 1 (TNKS1)): 5 to 20 nM
GI50 [1]: 1000 to 10000 nM

CN1c2ccccc2C(=O)NC1c1c[nH]nc1-c1cccc(Br)c1 (stereo not shown) [Example 20, 2-[3-(3-Bromophenyl)-1H-pyrazol-4-yl]-1-methyl-2,3-dihydroquinazolin-4-one]
IC50 (tankyrase 2 (TNKS2)): 5 to 20 nM
IC50 (tankyrase 1 (TNKS1)): 20 to 50 nM
GI50 [1]: ≥ 10000 nM
